“Also recorded” adds a separate entry of the source. Read-outs that look alike come from different tables or passages of the source.
Columns and labels:
TNF-α [1] = test: Purinergic compounds on LPS+PHA-induced TNF-α secretion in whole blood, Experiment 3; assay type: cell-based, human; conditions: for effect on LPS+PHA-induced TNF-α release (FIG. 8): compound at 300 μM, 24 h, order of inhibition adenosine<AMP<ADP<ATP; for inhibiting TNFα production in LPS-PHA stimulated whole blood, compared with ATP: pretreatment of whole blood, initial findings, ATP compared with ADP, AMP or adenosine; for anti-inflammatory effects relative to those of ATP: same whole blood model ex vivo
Experimental: (§1) Blood is collected as described for Experiment 1. Whole blood is then aliquoted into 24-well sterile plates and diluted 1:4 with RPMI 1640 (supplemented with L-glutamine). To induce cytokine production, PHA and bacterial LPS are added to whole blood at 1 μg/ml and 10 μg/ml respectively. After addition of ATP and stimulants, the plates are incubated in 5% CO2 at 37° C. for 24 h. Cell-free supernatant fluids are then collected by centrifugation (6000 rpm, 10 min at 4° C.) and stored at −20° C. until tested for presence of cytokines. All incubations are performed in duplicate. ATP, dissolved in RPMI 1640 culture medium, is added to the blood at a final concentration of 1-1000 μM. Blood is pre-incubated with ATP at 5% CO2 at 37° C. for 30 min before stimulation with LPS+PHA. The agonists are added in the same way as ATP, however their stock solutions are prepared in PBS and further diluted in medium.

IL-10 [2] = test: Purinergic compounds on LPS+PHA-induced IL-10 release in whole blood, Experiment 3; assay type: cell-based, human; conditions: pretreatment of whole blood; initial findings; ATP compared with ADP, AMP or adenosine
Experimental: as §1

TNF-α [3] = test: LPS+PHA-induced TNF-α secretion in whole blood ex vivo (ELISA), Experiment 1; assay type: cell-based, human; conditions: 24 h
Text: (§2) For the first experiment, purified phyto-haemagglutinin HA16 (PHA) and E. Coli 0.26: B6 lipopolysaccharide (LPS) were from Murex, Dartford, UK and Sigma Chemical Co, St. Louis, USA, respectively. Human TNF-α (7300 pg/ml) was obtained from CLB/Sanquin, The Netherlands. RPMI 1640 medium containing L-glutamine was obtained from Gibco, UK. Adenosine-5′-triphosphate disodium salt (ATP) was purchased from Calbiochem, USA.
(§3) Blood was collected from 8 healthy subjects in heparin containing vacutainer tubes (Vacutainer, Becton-Dickinson, 170 I.U). […] Whole blood was aliquoted into 24-well sterile plates and diluted 1:4 with RPMI 1640 (supplemented with L-glutamine). To induce cytokine production, PHA and bacterial LPS were added at 1 μg/ml and 10 μg/ml final concentration respectively. […]
(§4) All cytokines were quantified by means of PeliKine Compact human ELISA kits (CLB/Sanquin, The Netherlands), based on appropriate and validated sets of monoclonal antibodies. […] The antibody on the microtiter plate then captured the cytokine present in a measured volume of sample or standard, and non-bound material was removed by washing. […] Color development was stopped by addition of sulfuric acid and the intensity of the color was measured by a microtiter plate reader (absorbance at 450 nm). The absorbance was transformed to cytokine concentrations (ng/L) using the standard curve. […]

IL-10 [4] = test: LPS+PHA-induced IL-10 secretion in whole blood ex vivo (ELISA), Experiment 1; assay type: cell-based, human; conditions: 24 h
Text: as §2, §3, §4

IL-6 [5] = test: LPS+PHA-induced IL-6 secretion in whole blood ex vivo (ELISA), Experiment 1; assay type: cell-based, human; conditions: whole blood of healthy subjects, 24 h; ATP 1-300 μM; disodium salt
Text: as §2, §3, §4

TNF-α [6] = test: LPS+PHA-induced TNF-α secretion in whole blood under oxidative stress (H2O2), Experiment 2; assay type: cell-based, human; conditions: whole blood with 1 or 10 mM H2O2, 24 h; effect at 100 and 300 μM ATP; disodium salt
Experimental: (§5) Blood was collected from 8 healthy subjects in heparin containing vacutainer tubes (Vacutainer, Becton-Dickinson, 170 I.U). […] Whole blood was aliquoted into 24-well sterile plates and diluted 1:4 with RPMI 1640 (supplemented with L-glutamine). To induce cytokine production, PHA and bacterial LPS were added at 1 μg/ml and 10 μg/ml final concentration respectively. After adding the concentrated solutions of ATP and the stimulants the plates were incubated in 5% CO2 at 37° C. for 24 h. After the incubation cell-free supernatant fluids were collected by centrifugation (6000 rpm, 10 min at 4° C.) and stored at −20° C. until tested for presence of cytokines.
as §4, with “antibodies. Assays were performed as follows.” for “antibodies.”

IL-10 [7] = test: LPS+PHA-induced IL-10 secretion in whole blood under oxidative stress (H2O2), Experiment 2; assay type: cell-based, human; conditions: whole blood with 1 or 10 mM H2O2, 24 h; ATP 1-300 μM; disodium salt
Experimental: as §5
as §4, with “antibodies. Assays were performed as follows.” for “antibodies.”

IL-6 [8] = test: LPS+PHA-induced IL-6 secretion in whole blood under oxidative stress (H2O2), Experiment 2; assay type: cell-based, human; conditions: whole blood with 1 or 10 mM H2O2, 24 h; ATP 1-300 μM; disodium salt
Experimental: as §5
as §4, with “antibodies. Assays were performed as follows.” for “antibodies.”

[9] = test system: healthy non-smoking human subjects; test: Lactulose/rhamnose (L/R) intestinal permeability test after indomethacin, Experiment 4; assay type: in vivo; conditions: indomethacin (75 mg + 50 mg) and ATP into duodenum vs indomethacin only; 5 h urine
Experimental: Methods Intestinal permeability is tested in healthy non-smoking human subjects using the lactulose/rhamnose (L/R) intestinal permeability test. This barrier function test is based on the comparison of intestinal permeation of molecules of different sizes by measuring the ratio of urinary excretion of the disaccharide lactulose and the monosaccharide rhamnose. These two sugars follow different routes of intestinal permeation, i.e., lactulose permeates through the paracellular pathway, whereas rhamnose permeates transcellulary. The experiments are performed as follows: at t=−14 hrs, a Bengmark-type naso-intestinal tube (Flocare, Zoetermeer, The Netherlands) is installed into the stomach. Next, at t=−10 hrs, subjects ingest a capsule of indomethacin (75 mg) immediately followed by administration of either ATP or placebo directly into the subject's duodenum through the inserted tube. At t=−1 hr, after an overnight fast, subjects receive a second dose of indomethacin (50 mg) followed by either ATP or placebo. Then, at t=0, the permeability test is performed as follows: subjects ingest a hyperosmolar drink containing 5 g of lactulose and 0.5 g of L-rhamnose dissolve d in […] water. After ingestion of the hyperosmolar test drink, total urine produced over 5 hours is collected.

cancer patients = test: Safety of intravenous ATP home infusions in cancer patients; assay type: in vivo, human; conditions: over 60 intravenous home infusions in cancer patients
Text: In order to determine the tolerance for ATP as well as the maximally tolerated dose of ATP, the first ATP infusion is preferably administered under medical supervision, usually in an in- or outpatient setting. Subsequent infusions can either be started at the hospital day care centre, at private homes, nursing homes, etc. according to a standardized protocol.

[10] = test system: mice bearing colon tumour; conditions: daily intraperitoneal injections of 25 mmol/L for 10 consecutive days (refs 9, 10), cited from earlier work
[11] = test system: patients with non-small cell lung cancer; conditions: 8 stage IIIB/IV patients; 2 to 3 intravenous courses of 96 hours at 4-week intervals (ref 11); cited from earlier work
[12] = test system: patients with non-small cell lung cancer; conditions: 15 newly diagnosed patients; after 4 ATP courses (ref 12); cited from earlier work
[13] = test system: advanced non-small-cell lung cancer patients; conditions: cited from earlier work
[14] = whole blood of healthy subjects, effect at 100 and 300 μM ATP (tested 1-300 μM), disodium salt

In the case of `O=c1ccn([C@@H]2O[C@H](COP(=O)(O)OP(=O)(O)OP(=O)(O)O)[C@@H](O)[C@H]2O)c(=O)[nH]1` [UTP, uridine 5′-triphosphate], the “effect on LPS+PHA-induced TNF-α release (FIG. 8)” value (“effect … (FIG. 8)” below) (TNF-α [1]) is reported as “not inhibited”.

In the case of `CSc1nc(N)c2ncn([C@@H]3O[C@H](COP(=O)(O)OP(=O)(O)OP(=O)(O)O)[C@@H](O)[C@H]3O)c2n1` [2-MeS-ATP, reference compound], the “inhibiting TNFα production in LPS-PHA stimulated whole blood, compared with ATP” value (TNF-α [1]) is reported as “at least partly mimicked” and the “stimulating IL-10 production in LPS-PHA stimulated whole blood, compared with ATP” value (IL-10 [2]) is reported as “at least partly mimicked”.

For `Nc1ncnc2c1ncn2[C@@H]1O[C@H](COP(=O)([O-])OP(=O)([O-])OP(=O)(O)O)[C@@H](O)[C@H]1O.[Na+].[Na+]` [ATP, Adenosine-5′-triphosphate disodium salt], the inhibition at 300 µM (TNF-α [3]; Homo sapiens, 300 μM ATP, whole blood, 10 μg/ml LPS + 1 μg/ml PHA, vs stimulation without ATP, read-out: inhibition of the TNF-α production) was 65%, the “effect on LPS+PHA-induced TNF-α release” value (TNF-α [3]; [14]) was “dose-dependent inhibition; also recorded: significantly inhibited” and the “stimulation of the IL-10 production” value (IL-10 [4]; 300 μM ATP, whole blood, 10 μg/ml LPS + 1 μg/ml PHA, vs stimulation without ATP) was 62%. For the same compound, the “effect on LPS+PHA-induced IL-10 release” value (IL-10 [4]; [14]) was “increased the release of IL-10; also recorded: significantly increased”, the “effect on LPS+PHA-induced IL-6 release” value (IL-6 [5]) was “failed to significantly alter; also recorded: not influenced” and the “effect on LPS+PHA-induced TNF-α release under oxidative stress” value (TNF-α [6]) was “dose-dependent reduction; also recorded: significantly inhibited”. The “effect on LPS+PHA-induced IL-10 release under oxidative stress” value (IL-10 [7]) was “significant, dose-dependent rise; also recorded: significantly increased”, the “effect on LPS+PHA-induced IL-6 release under oxidative stress” value (IL-6 [8]) was “no effect; also recorded: not influenced” and the “effect … (FIG. 8)” value (TNF-α [1]) was “greatest inhibition”. For the same compound, the “inhibiting TNFα production in LPS-PHA stimulated whole blood, compared with ATP” value (TNF-α [1]) was “more effective”, the “stimulating IL-10 production in LPS-PHA stimulated whole blood, compared with ATP” value (IL-10 [2]) was “more effective” and the “urinary concentration ratio of lactulose relative to rhamnose” value [9] was “lower”. The hospital admissions (cancer patients) was “No hospital admissions were necessary”, the “serious side effects on the WHO Common Toxicity Criteria scale” value (cancer patients) was “no serious side effects grade 3-4” and the host weight loss [10] was “significant inhibition of host weight loss”. For the same compound, the body weight [11] was “stabilisation of body weight”, the average weight gain [12] was 1.3 kg and the “physical and functional quality of life, appetite, and muscle strength” value ([13]; ATP group, progressively deteriorated in control group (ref 13)) was “remained stable”. For the same compound, the life-threatening side effects ([13]; ATP infusion during 30 hrs, previous study (13)) was “did not find any life-threatening side effects”, the “plasma levels of pro- or anti-inflammatory cytokines” value ([13]; further analyses, Dagnelie et al. 2003, unpublished data) was “no effect” and the “loss of weight and muscle mass” value ([13]; regular infusions vs control group with supportive care only (ref 13)) was “inhibited loss of weight and muscle mass”.

For `Nc1ncnc2c1ncn2[C@@H]1O[C@H](CO)[C@@H](O)[C@H]1O` [adenosine], the “effect … (FIG. 8)” value (TNF-α [1]) is listed as “least inhibition”, the host weight loss [10] is listed as “significant inhibition of host weight loss” and the host weight loss ([10]; listed as adenosine without phosphate) is listed as “ineffective”.

In the case of `Nc1ncnc2c1ncn2[C@@H]1O[C@H](COP(=O)(O)O)[C@@H](O)[C@H]1O` [AMP], the “effect … (FIG. 8)” value (TNF-α [1]) is listed as “inhibited”, the “anti-inflammatory effects relative to those of ATP” value (TNF-α [1]) is listed as “less marked” and the host weight loss [10] is listed as “significant inhibition of host weight loss”.

For `Nc1ncnc2c1ncn2[C@@H]1O[C@H](COP(=O)(O)OP(=O)(O)O)[C@@H](O)[C@H]1O` [ADP], the “effect … (FIG. 8)” value (TNF-α [1]) was “inhibited” and the “anti-inflammatory effects relative to those of ATP” value (TNF-α [1]) was “less marked”.

For `O=c1ccn([C@@H]2O[C@H](COP(=O)(O)OP(=O)(O)O)[C@@H](O)[C@H]2O)c(=O)[nH]1` [UDP], the “effect … (FIG. 8)” value (TNF-α [1]) was “not inhibited”.

For `Nc1ccn([C@@H]2O[C@H](COP(=O)(O)OP(=O)(O)OP(=O)(O)O)[C@@H](O)[C@H]2O)c(=O)n1` [CTP], the “effect … (FIG. 8)” value (TNF-α [1]) was “not inhibited”.
